Measured values: PubChem BioAssay AID1919008 (Molecular Pharmacology Branch, DTP, NCI, 2023)

System: DMS-114 complex spheroids with HUVEC/MSC, growth % test/control
Test: Anticancer human tumor DMS-114 cell line growth inhibition [AhR];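 note: spheroids exposed to agents for 7 days before readout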;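 for viability, T/C: 100% = DMSO vehicle control wells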
Settings: for IC50: curve of first compound; for viability, T/C: stronger effect = lower value; active = viability on the fitted dose curve at most 10% of control; inactive = the rest
In short: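 Complex tumor spheroids co-cultured with HUVEC and human MSC stroma; AhR antagonists tested in combination with standard-of-care and investigational agents. Top concentration at or near clinical Cmax (else 10 microM), half-log dilutions; growth expressed as percent test/control.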

[1] = second compound 0.1 µM, first compound 0.0316 µM
[2] = second compound 0.1 µM, first compound 0.1 µM
[3] = second compound 0.1 µM, first compound 0.316 µM
[4] = second compound 0.1 µM, first compound 1 µM
[5] = second compound 0.1 µM, first compound 3.16 µM
[6] = second compound 0.1 µM, first compound 10 µM
[7] = second compound 0.316 µM, first compound 0.0316 µM
[8] = second compound 0.316 µM, first compound 0.1 µM
[9] = second compound 0.316 µM, first compound 0.316 µM
[10] = second compound 0.316 µM, first compound 1 µM
[11] = second compound 0.316 µM, first compound 3.16 µM
[12] = second compound 0.316 µM, first compound 10 µM
[13] = second compound 1 µM, first compound 0.0316 µM
[14] = second compound 1 µM, first compound 0.1 µM
[15] = second compound 1 µM, first compound 0.316 µM
[16] = second compound 1 µM, first compound 1 µM
[17] = second compound 1 µM, first compound 3.16 µM
[18] = second compound 1 µM, first compound 10 µM
[19] = second compound 3.16 µM, first compound 0.0316 µM
[20] = second compound 3.16 µM, first compound 0.1 µM
[21] = second compound 3.16 µM, first compound 0.316 µM
[22] = second compound 3.16 µM, first compound 1 µM
[23] = second compound 3.16 µM, first compound 3.16 µM
[24] = second compound 3.16 µM, first compound 10 µM
[25] = second compound 10 µM, first compound 0.0316 µM
[26] = second compound 10 µM, first compound 0.1 µM
[27] = second compound 10 µM, first compound 0.316 µM
[28] = second compound 10 µM, first compound 1 µM
[29] = second compound 10 µM, first compound 3.16 µM
[30] = second compound 10 µM, first compound 10 µM

CCc1c2c(nc3ccc(O)cc13)-c1cc3c(c(=O)n1C2)COC(=O)[C@]3(O)CC + Cc1ccccc1N=Nc1ccc(NC(=O)c2ccnn2C)c(C)c1
0.00831 µM: IC50 (second compound 0.316 µM)
inactive: viability, T/C (second compound 0.1 µM, first compound 0.000949 µM) 98.3% | viability, T/C (second compound 0.1 µM, first compound 0.003 µM) 97.7% | viability, T/C (second compound 0.1 µM, first compound 0.00949 µM) 48% | viability, T/C (second compound 0.1 µM, first compound 0.03 µM) 35.2% | viability, T/C (second compound 0.1 µM, first compound 0.0949 µM) 38.4% | viability, T/C (second compound 0.1 µM, first compound 0.3 µM) 37.7% | viability, T/C (second compound 0.316 µM, first compound 0.000949 µM) 103% | viability, T/C (second compound 0.316 µM, first compound 0.003 µM) 80.9% | viability, T/C (second compound 0.316 µM, first compound 0.00949 µM) 47% | viability, T/C (second compound 0.316 µM, first compound 0.03 µM) 30.5% | viability, T/C (second compound 0.316 µM, first compound 0.0949 µM) 32.5% | viability, T/C (second compound 0.316 µM, first compound 0.3 µM) 32.3% | viability, T/C (second compound 1 µM, first compound 0.000949 µM) 94% | viability, T/C (second compound 1 µM, first compound 0.003 µM) 90.9% | viability, T/C (second compound 1 µM, first compound 0.00949 µM) 50.5% | viability, T/C (second compound 1 µM, first compound 0.03 µM) 36.4% | viability, T/C (second compound 1 µM, first compound 0.0949 µM) 36.3% | viability, T/C (second compound 1 µM, first compound 0.3 µM) 40.6% | viability, T/C (second compound 3.16 µM, first compound 0.000949 µM) 93.2% | viability, T/C (second compound 3.16 µM, first compound 0.003 µM) 79.1% | viability, T/C (second compound 3.16 µM, first compound 0.00949 µM) 52.5% | viability, T/C (second compound 3.16 µM, first compound 0.03 µM) 35.6% | viability, T/C (second compound 3.16 µM, first compound 0.0949 µM) 39.8% | viability, T/C (second compound 3.16 µM, first compound 0.3 µM) 41.4% | viability, T/C (second compound 10 µM, first compound 0.000949 µM) 83.1% | viability, T/C (second compound 10 µM, first compound 0.003 µM) 82.2% | viability, T/C (second compound 10 µM, first compound 0.00949 µM) 53.7% | viability, T/C (second compound 10 µM, first compound 0.03 µM) 40.4% | viability, T/C (second compound 10 µM, first compound 0.0949 µM) 40.5% | viability, T/C (second compound 10 µM, first compound 0.3 µM) 43.5%
0.0134 µM: IC50 (second compound 10 µM)
0.00905 µM: IC50 (second compound 0.1 µM)
0.00991 µM: IC50 (second compound 1 µM)
0.0105 µM: IC50 (second compound 3.16 µM)

Nc1ccccc1NC(=O)c1ccc(CNC(=O)OCc2cccnc2)cc1 + Cc1ccccc1N=Nc1ccc(NC(=O)c2ccnn2C)c(C)c1
2.34 µM: IC50 (second compound 1 µM)
2.41 µM: IC50 (second compound 0.316 µM) | IC50 (second compound 10 µM)
inactive: viability, T/C [1] 91.5% | viability, T/C [2] 102% | viability, T/C [3] 91.5% | viability, T/C [4] 72.9% | viability, T/C [5] 40.1% | viability, T/C [6] 23.3% | viability, T/C [7] 95.7% | viability, T/C [8] 102% | viability, T/C [9] 94.8% | viability, T/C [10] 72.5% | viability, T/C [11] 43.7% | viability, T/C [12] 23.1% | viability, T/C [13] 91.8% | viability, T/C [14] 95.9% | viability, T/C [15] 90% | viability, T/C [16] 73.4% | viability, T/C [17] 41.8% | viability, T/C [18] 25.1% | viability, T/C [19] 98.6% | viability, T/C [20] 88.7% | viability, T/C [21] 84.5% | viability, T/C [22] 68.8% | viability, T/C [23] 43.9% | viability, T/C [24] 23.5% | viability, T/C [25] 91.6% | viability, T/C [26] 87.3% | viability, T/C [27] 85.5% | viability, T/C [28] 72.8% | viability, T/C [29] 42.9% | viability, T/C [30] 26.1%
2.46 µM: IC50 (second compound 3.16 µM)
2.22 µM: IC50 (second compound 0.1 µM)

Nc1ccn(C2OC(CO)C(O)C2(F)F)c(=O)n1 (stereo not given) + Cc1ccccc1N=Nc1ccc(NC(=O)c2ccnn2C)c(C)c1
inactive: viability, T/C [1] 21.8% | viability, T/C [2] 23.8% | viability, T/C [3] 25.1% | viability, T/C [4] 23.9% | viability, T/C [5] 25.7% | viability, T/C [6] 25.5% | viability, T/C [7] 25.6% | viability, T/C [8] 28.2% | viability, T/C [9] 26.3% | viability, T/C [10] 23% | viability, T/C [11] 23.2% | viability, T/C [12] 24.2% | viability, T/C [13] 25.5% | viability, T/C [14] 24.6% | viability, T/C [15] 26.5% | viability, T/C [16] 23.7% | viability, T/C [17] 26.4% | viability, T/C [18] 25.7% | viability, T/C [19] 25.4% | viability, T/C [20] 27.7% | viability, T/C [21] 28.3% | viability, T/C [22] 24.9% | viability, T/C [23] 26.8% | viability, T/C [24] 28.5% | viability, T/C [25] 29.2% | viability, T/C [26] 32.7% | viability, T/C [27] 29.4% | viability, T/C [28] 31.7% | viability, T/C [29] 31.7% | viability, T/C [30] 30%
< 0.0316 µM: IC50 (second compound 0.1 µM) | IC50 (second compound 0.316 µM) | IC50 (second compound 1 µM) | IC50 (second compound 3.16 µM) | IC50 (second compound 10 µM)

O=C(c1cc(Cc2n[nH]c(=O)c3ccccc23)ccc1F)N1CCN(C(=O)C2CC2)CC1 + Cc1ccccc1N=Nc1ccc(NC(=O)c2ccnn2C)c(C)c1
inactive: viability, T/C [1] 109% | viability, T/C [2] 107% | viability, T/C [3] 103% | viability, T/C [4] 111% | viability, T/C [5] 110% | viability, T/C [6] 97.5% | viability, T/C [7] 122% | viability, T/C [8] 109% | viability, T/C [9] 112% | viability, T/C [10] 105% | viability, T/C [11] 97.9% | viability, T/C [12] 94.7% | viability, T/C [13] 113% | viability, T/C [14] 95.8% | viability, T/C [15] 111% | viability, T/C [16] 105% | viability, T/C [17] 102% | viability, T/C [18] 105% | viability, T/C [19] 105% | viability, T/C [20] 111% | viability, T/C [21] 94.7% | viability, T/C [22] 102% | viability, T/C [23] 94.2% | viability, T/C [24] 103% | viability, T/C [25] 87.2% | viability, T/C [26] 103% | viability, T/C [27] 87.2% | viability, T/C [28] 91.2% | viability, T/C [29] 88.3% | viability, T/C [30] 81%
> 10 µM: IC50 (second compound 0.1 µM) | IC50 (second compound 0.316 µM) | IC50 (second compound 1 µM) | IC50 (second compound 3.16 µM) | IC50 (second compound 10 µM)
